We go through 15 molecules from patent US20120165319A1, “INHIBITORS OF INTERLEUKIN-1 BETA CONVERTING ENZYME” (VERTEX PHARMACEUTICALS INCORPORATED, priority 1995, published 2012).

One series deals with T1, ICE (Homo sapiens, UniProt P29466).
T1 sequence (P29466 120-297 limits assumed): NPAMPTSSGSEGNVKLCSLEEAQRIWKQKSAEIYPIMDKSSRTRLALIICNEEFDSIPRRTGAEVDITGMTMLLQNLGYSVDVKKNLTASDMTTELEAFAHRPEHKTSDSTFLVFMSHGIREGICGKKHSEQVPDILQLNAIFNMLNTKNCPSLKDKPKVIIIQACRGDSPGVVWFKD
T1 sequence (P29466 317-404 limits assumed): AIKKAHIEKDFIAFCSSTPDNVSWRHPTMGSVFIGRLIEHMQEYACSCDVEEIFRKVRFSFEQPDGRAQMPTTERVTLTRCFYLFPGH
Description: Enzyme assay with UV-visible substrate (visible ICE assay, Succinyl-Tyr-Val-Ala-Asp-pNitroanilide). It is filed as biochemical. The gist of the method:
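Read-out is the rate of pNA chromophore release (mOD/min, linear fit) monitored at 405-603 nm over 20 min at 37° C. Substrate was succinyl-Tyr-Val-Ala-Asp-pNitroanilide, added after a 15 min room-temperature preincubation of ICE with inhibitor.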

Series [1] in a line: Pharmacokinetic studies in the mouse (i.v. clearance, plasma levels). The format is in vivo. The settings on record: CD-1, plasma, iv, mouse, 25 mg/kg. The gist of the method: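 Male CD-1 mice (26-31 g) given 25 mg/kg i.v. via tail vein in 0.02M Tris (2.5 mg/ml), groups of 5 per timepoint from 2 to 120 min. Heparinized plasma deproteinated (perchloric acid or acetonitrile) and analysed by reverse-phase HPLC with UV or MS detection against plasma-spiked calibration (0.5 to 50 μg/ml).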

Series [2] in a line: In vivo rat clearance assay. The settings on record: plasma, iv. In short, it runs like this:
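Rats cannulated a day beforehand received 10–20 mg/kg by intravenous jugular dosing in propylene glycol/saline with 100 mM sodium bicarbonate. Carotid blood was sampled from 0 to 90 min, and plasma was extracted with acetonitrile/0.1% TFA for HPLC quantification. Clearance from non-linear regression pharmacokinetic analysis.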

The test system of series [3] is IL-1β production, LPS-challenged mice. Description: In vivo acute assay for efficacy as anti-inflammatory agent: LPS-induced IL-1β production in mice. Details: species or system mouse. The note with it: Mus musculus, po, LPS challenged mice, compound PO, 50 mg/kg, read-out: percent inhibition of IL-1β production. The gist of the method: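 CD1 mice (n=6) were challenged with LPS 20 mg/kg IP and given compound IP in olive oil:DMSO:ethanol (90:5:5) 1 h after LPS, or at the time of challenge for some analogs. Blood was taken 7 h after LPS and serum IL-1β was measured by ELISA. Oral gavage at 50 mg/kg was also tested.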

[4] abbreviates: 0 h, administered 0 h relative to time of LPS challenge.
[5] abbreviates: 2 h, administered −2 h relative to time of LPS challenge.

Molecules are shown by their SMILES. Read-outs that look alike come from different tables or passages of the source.

As usually defined, the Ki is the dissociation constant of the complex between target and ligand, obtained from inhibition or displacement. Read a low Ki as a stronger hold on the target. The clearance is the rate of elimination divided by the concentration. Broadly, the inhibition is how much of the control response was suppressed. Usually melting point stands for the temperature of the solid-liquid transition. The molecule `CC(=O)Nc1cccc(C(=O)N[C@H]2CCC(=O)N3CCC[C@@H](C(=O)N[C@H](C=O)CC(=O)O)N3C2=O)c1` [Compound 450, [3S(1S,9S)]3-{9-[(3-Acetamido)benzamido]-6,10-dioxo-1,2,3,4,7,8,9,10-octahydro-6H-pyridazino[1,2-a][1,2]diazepine-1-carboxamido}-4-oxobutanoic acid] returned a melting point of 175 to 179 °C. Also, the inhibition constant Ki at ICE (Table 5) is 5 nM. Besides, the clearance in series [1] is 18 mL/min/kg. In series [2] (10-20 mg/kg), this molecule had a clearance of 12 mL/min/kg. Moreover, the inhibition at 50 mg/kg in series [3] (setting [4]) came out at 35%. In series [3] (setting [5]), the inhibition at 50 mg/kg came out at 0%.
`O=C1C[C@H](NC(=O)[C@@H]2CCCN3C(=O)CC[C@H](NC(=O)c4cccc5ccccc45)C(=O)N23)C(OCc2ccccc2)O1` (stereo partly drawn) [Compound 213v, [1S,9S(2RS,3S)]N-(2-Benzyloxy-5-oxotetrahydrofuran-3-yl)-6,10-dioxo-9-(naphth-1-oylamino)-1,2,3,4,7,8,9,10-octahydro-6H-pyridazino[1,2-a][1,2]diazepine-1-carboxamide] returned a melting point of 121 to 127 °C. The Ki on ICE (Table 17) was found to be 0.5 nM. In series [1] (Table 17), this molecule displayed a clearance of 41 mL/min/kg. In series [2] (Table 17), this molecule gave a clearance of 23 mL/min/kg.
For the molecule `O=C(O)C[C@H](NC(=O)[C@@H]1CCCN2C(=O)CC[C@H](NC(=O)c3ccccc3)C(=O)N12)C(=O)c1nc2cc(Cl)cc(Cl)c2o1` [Compound 223e, [3S(1S,9S)]3-(9-Benzoylamino-6,10-dioxo-1,2,3,4,7,8,9,10-octahydro-6H-pyridazino-[1,2-a][1,2]diazepine-1-carboxamido)-4-(5,7-dichlorobenzoxazol-2-yl)-4-oxobutanoic acid], the melting point was 167 to 180 °C. In addition, the Ki on ICE (Table 5) was found to be 1.6 nM. For the same molecule, the clearance in series [1] was 89 mL/min/kg.
As to `Cc1ccccc1C(=O)N[C@H]1CCC(=O)N2CCC[C@@H](C(=O)N[C@H](C=O)CC(=O)O)N2C1=O` [Compound 404], the melting point is 156 to 159 °C. The molecule also displayed a Ki at ICE (Table 5) of 2.9 nM. Besides, the clearance in series [1] came out at 64 mL/min/kg. In addition, in series [2] (10-20 mg/kg), the clearance turned out to be 24 mL/min/kg. Also, the inhibition at 50 mg/kg in series [3] (setting [4]) worked out at 6%. Besides, in series [3] (1 h, administered +1 h relative to time of LPS challenge), the inhibition at 50 mg/kg was found to be 56%. In addition, the inhibition at 50 mg/kg in series [3] (setting [5]) was determined as 55%.
Take `O=C[C@H](CC(=O)O)NC(=O)[C@@H]1CCCN2C(=O)CCN(NC(=O)c3ccc4c(c3)OCO4)C(=O)N12` [Compound 1015, [3S(4S)]3-[6,10-Dioxo-7-(3,4-methylenedioxybenzoylamino)-1,2,3,4,7,8,9,10-octahydro-6H-pyridazino[1,2-a][1,2,4]triazepine-4-carboxamido]-4-oxobutanoic acid]: the melting point lay in the range of 170 to 175 °C. Moreover, on ICE (Table 5), the Ki worked out at 40 nM. Besides, the clearance in series [2] (10-20 mg/kg) was 23 mL/min/kg. The inhibition at 50 mg/kg in series [3] (setting [4]) came out at 28%. Moreover, in series [3] (setting [5]), the inhibition at 50 mg/kg turned out to be 15%.
Take `COC(=O)N[C@H]1CCC(=O)N2CCC[C@@H](C(=O)N[C@@H](CC(=O)O)C(=O)COC(=O)c3c(C)cccc3C)N2C1=O` [Compound 285, [3S(1S,9S)]5-(2,6-Dimethylbenzoyloxy)-3-[6,10-dioxo-9-(methoxycarbonyl)amino-1,2,3,4,7,8,9,10-octahydro-6H-pyridazino[1,2-a][1,2]diazepine-1-carboxamido]-4-oxopentanoic acid]: the melting point was 110 °C (dec.). In addition, the clearance in series [1] came out at 130 mL/min/kg. Further, the clearance in series [2] (10-20 mg/kg) is 50 mL/min/kg.
As to `O=C[C@H](CC(=O)O)NC(=O)[C@@H]1CCCN2C(=O)CC[C@H](NC(=O)c3cccc4ccccc34)C(=O)N12` [Compound 408, [3S(1S,9S)]3-[6,10-Dioxo-9-(naphth-1-oylamino)-1,2,3,4,7,8,9,10-octahydro-6H-pyridazino[1,2-a][1,2]diazepine-1-carboxamido]-4-oxobutanoic acid], the melting point was 157 to 165 °C. For the same molecule, the inhibitory constant (Ki) on ICE (Table 5) was 0.5 nM. Besides, the clearance in series [1] was determined as 41 mL/min/kg. The same molecule displayed a clearance in series [2] (10-20 mg/kg) of 23 mL/min/kg.
Take `O=C[C@H](CC(=O)O)NC(=O)[C@@H]1CCCN2CCC[C@H](NC(=O)c3ccccc3)C(=O)N12` [Compound 246]: the melting point fell in the range of 110 to 115 °C. This molecule came in with an inhibition constant Ki at ICE (Table 5) of 12 nM. Besides, the clearance in series [1] worked out at 31 mL/min/kg.
The like results for `O=C(O)C[C@H](NC(=O)[C@@H]1CCCN2C(=O)CC[C@H](NC(=O)c3ccccc3)C(=O)N12)C(=O)CSCc1ccccc1Cl` [Compound 226e, [3S(1S,9S)]3-(9-Benzoylamino-6,10-dioxo-1,2,3,4,7,8,9,10-octahydro-6H-pyridazino[1,2-a][1,2]-diazepine-1-carboxamido)-5-(2-chlorophenyl)methylthio-4-oxopentanoic acid] were, in that order, 95 to 100 °C, 15 nM and 109 mL/min/kg.
As for `COc1cc(C(=O)N[C@H]2CCC(=O)N3CCC[C@@H](C(=O)N[C@H](C=O)CC(=O)O)N3C2=O)cc(OC)c1OC` [Compound 417, [3S(1S,9S)]3-[6,10-Dioxo-1,2,3,4,7,8,9,10-octahydro-9-(3,4,5-trimethoxybenzoylamino)-6H-pyridazino[1,2-a][1,2]diazepine-1-carboxamido]-4-oxobutanoic acid], the melting point fell in the range of 145 to 155 °C. The same molecule registered an inhibition constant (Ki) on ICE (Table 5) of 8 nM. Further, the clearance in series [1] was determined as 33 mL/min/kg. Further, in series [2] (10-20 mg/kg), the clearance was found to be 22 mL/min/kg.
`CC(C)CC(=O)Nc1ccc(C(=O)N[C@H]2CCC(=O)N3CCC[C@@H](C(=O)N[C@H](C=O)CC(=O)O)N3C2=O)cc1` [Compound 487, [3S(1S,9S)]3-{6,10-Dioxo-9-[4-(3-methylbutan-1-oylamino)benzamido]-1,2,3,4,7,8,9,10-octahydro-6H-pyridazino[1,2-a][1,2]diazepine-1-carboxamido}-4-oxobutanoic acid] displayed a melting point of 176 to 180 °C. Also, the inhibition constant (Ki) at ICE (Table 5) turned out to be 2.4 nM. This molecule also registered a clearance in series [2] (10-20 mg/kg) of 20 mL/min/kg. In addition, in series [3] (setting [4]), the inhibition at 50 mg/kg was 20%. Further, the inhibition at 50 mg/kg in series [3] (setting [5]) is 17%.
Molecule `O=C[C@H](CC(=O)O)NC(=O)[C@@H]1CCCN2C(=O)CCN(NC(=O)c3cc4ccccc4[nH]3)C(=O)N12` [Compound 1075, [3S(4S)]3-[6,10-Dioxo-7-(indole-2-carboxamido)-1,2,3,4,7,8,9,10-octahydro-6H-pyridazino[1,2-a][1,2,4]triazepine-4-carboxamido]-4-oxobutanoic acid] showed a melting point of 210 to 215 °C. For the same molecule, the inhibitory constant (Ki) on ICE (Table 17) is 120 nM. Also, the clearance in series [2] (Table 17) was found to be 14.5 mL/min/kg.
In the case of `O=C[C@H](CC(=O)O)NC(=O)[C@@H]1CCCN2C(=O)CC[C@H](NC(=O)c3ccc(NC(=O)Cc4ccccc4)cc3)C(=O)N12` [Compound 486, [3S(1S,9S)]3-{6,10-Dioxo-1,2,3,4,7,8,9,10-octahydro-9-[4-(phenylacetamido)benzamido]-6H-pyridazino[1,2-a][1,2]diazepine-1-carboxamido}-4-oxobutanoic acid], the melting point lay within 165 to 169 °C. Moreover, the inhibition constant (Ki) on ICE (Table 5) came out at 2.3 nM. Besides, in series [2] (10-20 mg/kg), the clearance is 37 mL/min/kg. The inhibition at 50 mg/kg in series [3] (setting [4]) is 15%. In series [3] (setting [5]), the inhibition at 50 mg/kg is 19%.
`O=C[C@H](CC(=O)O)NC(=O)[C@@H]1CCCN2C(=O)CC[C@H](NC(=O)c3ccc4c(c3)OCO4)C(=O)N12` [Compound 415, [3S(1S,9S)]3-[6,10-Dioxo-9-(3,4-methylenedioxybenzoylamino)-1,2,3,4,7,8,9,10-octahydro-6H-pyridazino[1,2-a][1,2]diazepine-1-carboxamido]-4-oxobutanoic acid]: the melting point is 158 to 162 °C. Further, the inhibition constant Ki on ICE (Table 5) is 2.5 nM. This molecule showed a clearance in series [1] of 26 mL/min/kg. In series [2] (10-20 mg/kg), this molecule displayed a clearance of 18 mL/min/kg.
In the case of `COC(=O)N[C@H]1CCC(=O)N2CCC[C@@H](C(=O)N[C@@H](CC(=O)O)C(=O)CSc3ncccn3)N2C1=O` [Compound 511c, [3S(1S,9S)]3-[6,10-Dioxo-9-(methoxycarbonyl)-amino-1,2,3,4,7,8,9,10-octahydro-6H-pyridazino[1,2-a][1,2]diazepine-1-carboxamido]-5-(2-mercaptopyrimidine)-4-oxopentanoic acid], the melting point was 105 °C (dec.). This molecule yielded a Ki on ICE (Table 17) of 730 nM. This molecule also yielded a clearance in series [1] (Table 17) of 78 mL/min/kg. Besides, in series [2] (Table 17), the clearance is 40 mL/min/kg.
